ChEMBL document CHEMBL3804815, “Aloperine and Its Derivatives as a New Class of HIV-1 Entry Inhibitors” (ACS Med Chem Lett, 2016)
Calls of active or inactive are those of the source. The rule behind the calls is not given here.

What was measured:
[1] = Cytotoxicity against human MT4 cells assessed as reduction in cell viability after 3 days by CellTiter-Glo luminescent assay; format: cell-based
[2] = system: Human immunodeficiency virus 1; assay: Antiviral activity against HIV1 NL4-3 infected in human MT4 cells assessed as reduction in viral replication measured on day 3 post infection by Nano-Glo luciferase reporter gene assay; format: functional, organism-based; details: Human immunodeficiency virus 1, NL4-3, MT4, 72 h
COS [3] = assay: Inhibition of HIV1 NL4-3 Env-induced cell-cell fusion between viral envelope expressing African green monkey COS cells to CXCR4 receptor expressing human TZM-bl cells at 0.01 to 10 uM after overnight incubation by Bright-Glo luciferase assay; format: cell-based; details: Human immunodeficiency virus 1
COS [4] = assay: Inhibition of HIV1 YU2 gp120-induced cell-cell fusion between viral envelope expressing African green monkey COS cells to CCR5 receptor expressing human TZM-bl cells at 0.01 to 10 uM after overnight incubation by Bright-Glo luciferase assay; format: cell-based; details: Human immunodeficiency virus type 1 (isolate YU2)
[5] = Inhibition of HIV1 YU2 gp120-induced cell-cell fusion between viral envelope expressing African green monkey COS cells to CCR5 receptor expressing human TZM-bl cells after overnight incubation by Bright-Glo luciferase assay; format: cell-based, Human immunodeficiency virus type 1 (isolate YU2); details: Human immunodeficiency virus 1, COS
COS [6] = assay: Inhibition of BMS-806 resistant HIV1 YU2 gp120 T198P mutant-induced cell-cell fusion between viral envelope expressing African green monkey COS cells to CCR5 receptor expressing human TZM-bl cells at 5 uM after overnight incubation by Bright-Glo luciferase assay; format: cell-based; details: Human immunodeficiency virus type 1 (isolate YU2)
COS [7] = assay: Inhibition of HIV1 8X gp120-induced cell-cell fusion between viral envelope expressing African green monkey COS cells and human TZM-bl cells up to 5 uM after overnight incubation by Bright-Glo luciferase assay; format: cell-based; details: Human immunodeficiency virus 1
[8] = system: Human immunodeficiency virus 1; assay: Antiviral activity against HIV1 NL4-3 assessed as inhibition of early phase viral infection in human MT4 cells; format: functional, organism-based
[9] = system: Human immunodeficiency virus 1; assay: Antiviral activity against HIV1 NL4-3 assessed as inhibition of viral infection in human MT4 cells treated 2 hrs post infection; format: functional, organism-based
[10] = Inhibition of HIV1 NL4-3 Env-induced cell-cell fusion between viral envelope expressing African green monkey COS cells to CXCR4 receptor expressing human TZM-bl cells after overnight incubation by Bright-Glo luciferase assay; format: cell-based; details: Human immunodeficiency virus 1, NL4-3, COS
COS [11] = assay: Inhibition of BMS-806 resistant HIV1 YU2 gp120 T198P mutant-induced cell-cell fusion between viral envelope expressing African green monkey COS cells to CCR5 receptor expressing human TZM-bl cells at 0.001 to 10 uM after overnight incubation by Bright-Glo luciferase assay; format: cell-based; details: Human immunodeficiency virus type 1 (isolate YU2)
COS [12] = assay: Inhibition of HIV1 8X gp120-induced cell-cell fusion between viral envelope expressing African green monkey COS cells and human TZM-bl cells at 0.001 to 10 uM after overnight incubation by Bright-Glo luciferase assay; format: cell-based; details: Human immunodeficiency virus 1

| SMILES | CC50 at 72 h [1] [µM] | EC50 [2] [µM] | other results |
| --- | --- | --- | --- |
| NCCCCN1CCCC2=C[C@H]3C[C@H](CN4CCCC[C@H]34)[C@@H]21 | > 69.2 | 8 | – |
| C1CN[C@@H]2C(C1)C[C@H]1C[C@@H]2CN2CCCC[C@H]12 (stereo partly drawn) | > 85.5 | > 10 | – |
| O=C(/C=C/c1ccc(OC(F)(F)F)cc1)NCCCCCN1CCCC2=C[C@H]3C[C@H](CN4CCCC[C@H]34)[C@@H]21 | 6.36 | 2.39 | – |
| FC(F)(F)Oc1ccc(CNCCCCN2CCCC3=C[C@H]4C[C@H](CN5CCCC[C@H]45)[C@@H]32)cc1 | 6.2 | 4.2 | – |
| CN1CCCC2C[C@H]3C[C@H](CN4CCCC[C@H]34)[C@@H]21 (stereo partly drawn) | > 80.6 | > 10 | – |
| O=C(/C=C/c1ccc2c(c1)OCO2)NCCCN1CCCC2=C[C@H]3C[C@H](CN4CCCC[C@H]34)[C@@H]21 | > 43.2 | 7.98 | – |
| COc1ccc(C(=O)NCCCCN2CCCC3=C[C@H]4C[C@H](CN5CCCC[C@H]45)[C@@H]32)cc1 | > 45.8 | 8.13 | – |
| O=C(NCCCCN1CCCC2=C[C@H]3C[C@H](CN4CCCC[C@H]34)[C@@H]21)c1ccc(O)cc1 | > 47.3 | 4.57 | – |
| O=C(NCCCCN1CCCC2=C[C@H]3C[C@H](CN4CCCC[C@H]34)[C@@H]21)c1ccc(OC(F)(F)F)cc1 | 34.6 | 1.12 | – |
| O=C(NCCCCCN1CCCC2=C[C@H]3C[C@H](CN4CCCC[C@H]34)[C@@H]21)c1ccc(OC(F)(F)F)cc1 | 12.9 | 0.98 | – |
| O=C(Cc1ccc(OC(F)(F)F)cc1)NCCCCCN1CCCC2=C[C@H]3C[C@H](CN4CCCC[C@H]34)[C@@H]21 | 17.5 | 4.21 | – |
| O=C(Cc1ccc(OC(F)(F)F)cc1)NCCCN1CCCC2=C[C@H]3C[C@H](CN4CCCC[C@H]34)[C@@H]21 | > 40.7 | 7.68 | – |
| NCCCN1CCCC2=C[C@H]3C[C@H](CN4CCCC[C@H]34)[C@@H]21 | > 69.4 | > 10 | – |
| O=C(NCCN1CCCC2=C[C@H]3C[C@H](CN4CCCC[C@H]34)[C@@H]21)c1ccc(OC(F)(F)F)cc1 | > 43.2 | > 10 | – |
| O=C(NCCCCN1CCCC2=C[C@H]3C[C@H](CN4CCCC[C@H]34)[C@@H]21)c1ccccc1 | > 49.1 | > 10 | – |
| C1=C2CCCN(CCCCNCc3ccccc3)[C@H]2[C@@H]2C[C@H]1[C@H]1CCCCN1C2 | 28.6 | 0.96 | – |
| Cc1ccc(C(=O)NCCCCN2CCCC3=C[C@H]4C[C@H](CN5CCCC[C@H]45)[C@@H]32)cc1 | > 47.5 | 4.98 | – |
| C1=C2CCCN(CCCCCNCc3ccccc3)[C@H]2[C@@H]2C[C@H]1[C@H]1CCCCN1C2 | 25.1 | 0.84 | – |
| O=C(NCCCCN1CCCC2=C[C@H]3C[C@H](CN4CCCC[C@H]34)[C@@H]21)c1ccccc1OC(F)(F)F | > 40.7 | > 10 | – |

| SMILES | CC50 at 72 h [1] [µM] | EC50 [2] [µM] | other results |
| --- | --- | --- | --- |
| NCCCCCN1CCCC2=C[C@H]3C[C@H](CN4CCCC[C@H]34)[C@@H]21 | > 63.1 | 5.38 | – |
| O=C(NCCCCN1CCCC2=C[C@H]3C[C@H](CN4CCCC[C@H]34)[C@@H]21)c1cccc(OC(F)(F)F)c1 | > 40.7 | 3.89 | – |
| C=C(C)[C@@H]1CC[C@]2(C(=O)NCCCCCCCNC(C)=O)CC[C@]3(C)[C@H](CC[C@@H]4[C@@]5(C)CC[C@H](O)C(C)(C)[C@@H]5CC[C@]43C)[C@@H]12 | > 32.8 | 0.025 | inhibition (COS [3]): Active; inhibition (COS [4]): Active |
| O=C(NCCCN1CCCC2=C[C@H]3C[C@H](CN4CCCC[C@H]34)[C@@H]21)c1ccc(OC(F)(F)F)cc1 | > 41.9 | > 10 | – |
| O=C(NCCCCCCN1CCCC2=C[C@H]3C[C@H](CN4CCCC[C@H]34)[C@@H]21)c1ccc(OC(F)(F)F)cc1 | 18.5 | 5.44 | – |
| O=C(Cc1ccc(OC(F)(F)F)cc1)NCCN1CCCC2=C[C@H]3C[C@H](CN4CCCC[C@H]34)[C@@H]21 | > 41.9 | > 10 | – |
| O=C(NCCCCN1CCCC2=C[C@H]3C[C@H](CN4CCCC[C@H]34)[C@@H]21)c1ccc(F)cc1 | > 47.1 | > 10 | – |
| NCCCCCCN1CCCC2=C[C@H]3C[C@H](CN4CCCC[C@H]34)[C@@H]21 | > 60.4 | > 10 | – |
| CN1CCCC2=C[C@H]3C[C@H](CN4CCCC[C@H]34)[C@@H]21 | > 81.3 | > 10 | – |
| O=C(NCCCCN1CCCC2=C[C@H]3C[C@H](CN4CCCC[C@H]34)[C@@H]21)c1ccc(OC(F)(F)F)cc1F | > 39.3 | 3.14 | – |
| NCCN1CCCC2=C[C@H]3C[C@H](CN4CCCC[C@H]34)[C@@H]21 | > 73 | > 10 | – |
| COc1ccnc2[nH]cc(C(=O)C(=O)N3CCN(C(=O)c4ccccc4)C[C@H]3C)c12 | – | – | EC50 [5]: 100 nM; inhibition (COS [6]): inactive; inhibition (COS [7]): inactive |
| O=C(/C=C/c1ccc(OC(F)(F)F)cc1)NCCCCN1CCCC2=C[C@H]3C[C@H](CN4CCCC[C@H]34)[C@@H]21 | 9.02 | 2.06 | – |
| O=C(NCCCCCN1CCCC2=C[C@H]3C[C@H](CN4CCCC[C@H]34)[C@@H]21)c1ccc(OC(F)(F)F)cc1F | > 38.2 | 6.21 | – |
| O=C(/C=C/c1ccc2c(c1)OCO2)NCCN1CCCC2=C[C@H]3C[C@H](CN4CCCC[C@H]34)[C@@H]21 | > 44.5 | > 10 | – |
| O=C(/C=C/c1ccc2c(c1)OCO2)NCCCCN1CCCC2=C[C@H]3C[C@H](CN4CCCC[C@H]34)[C@@H]21 | > 41.9 | 3.17 | – |
| O=C(NCCCCN1CCCC2=C[C@H]3C[C@H](CN4CCCC[C@H]34)[C@@H]21)c1ccc(C(F)(F)F)cc1 | > 42.1 | 0.69 | – |
| C1=C2CCCN[C@H]2[C@@H]2C[C@H]1[C@H]1CCCCN1C2 | > 86.2 | 1.75 | inhibition [8]: Active; inhibition [9]: inactive; EC50 [10]: 1200 nM; EC50 [5]: 1600 nM; inhibition (COS [11]): Active; inhibition (COS [12]): Active |
